Laboratory results published in US8785488B2 (Exelixis Patent Company LLC, priority 2009, dated 2014).

Tests used:
[1] = target: T1, human TGR5 (h-TGR5) (Homo sapiens, UniProt Q8TDU6); assay: TGR5/CRE-Luciferiase Assay (HEK 293 hTGR5/CRE-Luc cells); assay type: cell-based; details: h-TGR5 CRE-Luc EC50, Table 1; read-out: CRE-Luc (EC50)
T1 construct: expressed in transfected cells
T1 sequence (Q8TDU6 1-330): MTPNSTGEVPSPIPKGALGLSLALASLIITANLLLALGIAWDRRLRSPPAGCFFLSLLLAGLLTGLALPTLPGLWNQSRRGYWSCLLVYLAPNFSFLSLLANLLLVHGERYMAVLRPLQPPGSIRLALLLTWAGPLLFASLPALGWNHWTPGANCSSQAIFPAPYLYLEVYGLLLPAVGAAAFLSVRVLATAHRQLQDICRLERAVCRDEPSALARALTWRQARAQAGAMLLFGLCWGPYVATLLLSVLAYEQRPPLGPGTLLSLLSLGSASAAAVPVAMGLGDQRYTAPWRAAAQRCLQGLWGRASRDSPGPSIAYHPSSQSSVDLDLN
How it was run: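 HEK293 cells stably carrying hTGR5 and a CRE-luciferase reporter were exposed to serially diluted compounds (diluted in DMEM with 5% DMSO) for 6 h. Cells were then lysed in luciferase buffer, luminescence was read, and EC50 values were derived from dose-response curves.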

[2] = target: T2, h-TGR5 (Homo sapiens, UniProt Q8TDU6); assay: TGR5 cAMP Assay using Cisbio cAMP Dynamic2 htrf kit (hTGR5CRE-luc HEK 293 cells); assay type: cell-based; details: h-TGR5 cAMP EC50, Table 1; read-out: cAMP (EC50)
T2 construct: expressed in transfected cells
T2 sequence (Q8TDU6 1-330): T1 sequence (Q8TDU6 1-330)
How it was run: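 […], 4000 hTGR5CRE-luc HEK 293 cells per well, with 0.5 mM IBMX and d2-cAMP, were incubated 30 min at room temperature with compounds in 8-point half-log series, in quadruplicate.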

CC(=O)COc1ccc(CSc2ncc(C(C)(C)c3ccc(Cl)c(Cl)c3)n2-c2ccc(F)cc2)cc1S(N)(=O)=O [5-[({5-[1-(3,4-dichlorophenyl)-1-methylethyl]-1-(4-fluorophenyl)-1H-imidazol-2-yl}thio)methyl]-2-[(2-oxopropyl)oxy]benzenesulfonamide]
EC50 [1]: < 100 nM | EC50 [2]: 100 to 1000 nM

CC(C)(c1ccc(Cl)c(Cl)c1)c1cnc(SCc2ccc(F)c(C(N)=O)c2)n1-c1ccc(F)cc1 [5-[({5-[1-(3,4-dichlorophenyl)-1-methylethyl]-1-(4-fluorophenyl)-1H-imidazol-2-yl}thio)methyl]-2-fluorobenzamide]
EC50 [1]: 100 to 1000 nM | EC50 [2]: 100 to 1000 nM

CC(C)(c1ccc(Cl)c(Cl)c1)c1cnc(SCc2ccc(F)c(S(N)(=O)=O)c2)n1-c1ccc(F)cc1 [5-[({5-[1-(3,4-dichlorophenyl)-1-methylethyl]-1-(4-fluorophenyl)-1H-imidazol-2-yl}thio)methyl]-2-fluorobenzenesulfonamide]
EC50 [1]: < 100 nM | EC50 [2]: 100 to 1000 nM

CC(C)(c1ccc(Cl)c(Cl)c1)c1cnc(SCc2ccc(F)c(C(=O)O)c2)n1-c1ccc(F)cc1 [5-[({5-[1-(3,4-dichlorophenyl)-1-methylethyl]-1-(4-fluorophenyl)-1H-imidazol-2-yl}thio)methyl]-2-fluorobenzoic acid]
EC50 [1]: 100 to 1000 nM | EC50 [2]: 100 to 1000 nM

COc1ccc(C(C)(C)c2cnc(SCc3c(F)cccc3C(F)(F)F)n2-c2ccc(F)cc2)cc1OC [5-{1-[3,4-bis(methyloxy)phenyl]-1-methylethyl}-1-(4-fluorophenyl)-2-({[2-fluoro-6-(trifluoromethyl)phenyl]methyl}thio)-1H-imidazole]
EC50 [1]: < 100 nM | EC50 [2]: < 100 nM

COc1ccc(C(C)(C)c2cnc(CCc3c(F)cccc3Cl)n2-c2ccc(F)cc2)cc1OC [5-{1-[3,4-bis(methyloxy)phenyl]-1-methylethyl}-2-[2-(2-chloro-6-fluorophenyl)ethyl]-1-(4-fluorophenyl)-1H-imidazole]
EC50 [1]: < 100 nM | EC50 [2]: < 100 nM

COc1ccc(C(C)(C)c2cnc(SCc3c(Cl)cccc3Cl)n2-c2ccc(F)cc2)cc1OC [5-{1-[3,4-bis(methyloxy)phenyl]-1-methylethyl}-2-{[(2,6-dichlorophenyl)methyl]thio}-1-(4-fluorophenyl)-1H-imidazole]
EC50 [1]: < 100 nM | EC50 [2]: < 100 nM

COc1ccc(C(C)(C)c2cnc(SCc3ccc(F)cc3Cl)n2-c2ccc(F)cc2)cc1OC [5-{1-[3,4-bis(methyloxy)phenyl]-1-methylethyl}-2-{[(2-chloro-4-fluorophenyl)methyl]thio}-1-(4-fluorophenyl)-1H-imidazole]
EC50 [1]: < 100 nM | EC50 [2]: 100 to 1000 nM

COc1ccc(C(C)(C)c2cnc(SCc3cc(F)ccc3Cl)n2-c2ccc(F)cc2)cc1OC [5-{1-[3,4-bis(methyloxy)phenyl]-1-methylethyl}-2-{[(2-chloro-5-fluorophenyl)methyl]thio}-1-(4-fluorophenyl)-1H-imidazole]
EC50 [1]: < 100 nM | EC50 [2]: < 100 nM

COc1ccc(C(C)(C)c2cnc(COc3c(F)cccc3Cl)n2-c2ccc(F)cc2)cc1OC [5-{1-[3,4-bis(methyloxy)phenyl]-1-methylethyl}-2-{[(2-chloro-6-fluorophenyl)oxy]methyl}-1-(4-fluorophenyl)-1H-imidazole]
EC50 [1]: < 100 nM | EC50 [2]: < 100 nM

COc1ccc(C(C)(C)c2cnc(CSc3c(F)cccc3Cl)n2-c2ccc(F)cc2)cc1OC [5-{1-[3,4-bis(methyloxy)phenyl]-1-methylethyl}-2-{[(2-chloro-6-fluorophenyl)thio]methyl}-1-(4-fluorophenyl)-1H-imidazole]
EC50 [1]: < 100 nM | EC50 [2]: < 100 nM

COc1ccc(C(C)(C)c2cnc(SCc3cc(F)cc(Cl)c3)n2-c2ccc(F)cc2)cc1OC [5-{1-[3,4-bis(methyloxy)phenyl]-1-methylethyl}-2-{[(3-chloro-5-fluorophenyl)methyl]thio}-1-(4-fluorophenyl)-1H-imidazole]
EC50 [1]: < 100 nM | EC50 [2]: < 100 nM
